According to ChEMBL document CHEMBL1135853, “Structure-activity relationships of the peptide deformylase inhibitor BB-3497: modification of the metal binding group” (Bioorg Med Chem Lett, 2002):
Converted amounts (≈) assume the structure as drawn.

What was measured:
Escherichia coli [1] = assay: Compound was evaluated for antibacterial activity against Escherichia coli; format: functional
Staphylococcus capitis = assay: Compound was evaluated for antibacterial activity against Staphylococcus capitis; format: functional
Escherichia coli [2] = assay: Compound was evaluated for antibacterial activity against Escherichia coli in the range of 75-100 uM; Exerted a moderate antibacterial effect; format: functional
[3] = target: Peptide deformylase (Escherichia coli) (UniProt P0A6K3); assay: Compound was evaluated for inhibition of peptide deformylase, PDF.Ni of Escherichia coli at concentration of 1 uM
Chain of Peptide deformylase (Escherichia coli) (P0A6K3 whole entry, looked up): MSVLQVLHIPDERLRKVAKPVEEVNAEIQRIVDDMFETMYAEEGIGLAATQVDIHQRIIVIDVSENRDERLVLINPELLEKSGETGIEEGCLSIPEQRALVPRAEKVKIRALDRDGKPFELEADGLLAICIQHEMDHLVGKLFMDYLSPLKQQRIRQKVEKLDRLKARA

| Compound | MIC (Escherichia coli [1]) [µM] | MIC (Staphylococcus capitis) [µM] | MIC (Escherichia coli [2]) [µM] | inhibition [3] [%] |
| --- | --- | --- | --- | --- |
| CCCC[C@H](CN(O)C(N)=O)C(=O)N[C@H](C(=O)N(C)C)C(C)(C)C | > 200 | > 200 |  |  |
| CCCC[C@H](CS)C(=O)N[C@@H](CCCCN)C(=O)Nc1ccc([N+](=O)[O-])cc1 |  |  | 75 (≈ 30.8 µg/mL) |  |
| CCCC[C@H](CC(=O)O)C(=O)N[C@H](C(=O)N(C)C)C(C)(C)C | > 200 | > 200 |  |  |
| CCCC[C@H](OC(=O)NO)C(=O)N[C@H](C(=O)N(C)C)C(C)(C)C | > 200 | > 200 |  | 20 |
| CCCC[C@H](CS)C(=O)N[C@H](C(=O)N(C)C)C(C)(C)C | > 200 | > 200 |  | 10 |
| CCCCC(CP(=O)(O)O)C(=O)N[C@H](C(=O)N(C)C)C(C)(C)C (stereo partly specified) | > 200 | > 200 |  |  |
| CCCCC(C[PH](=O)O)C(=O)N[C@H](C(=O)N(C)C)C(C)(C)C (stereo partly specified) | > 200 | > 200 |  |  |
| CCCC[C@H](CC(=O)NN)C(=O)N[C@H](C(=O)N(C)C)C(C)(C)C | > 200 | > 200 |  |  |
| CCCC[C@H](CC(=O)NO)C(=O)N[C@H](C(=O)N(C)C)C(C)(C)C | 25 (≈ 8.24 µg/mL) | 100 (≈ 32.9 µg/mL) |  |  |
| CCCCC(CC(=N)NO)C(=O)N[C@H](C(=O)N(C)C)C(C)(C)C (stereo partly specified) | > 200 | > 200 |  |  |
| CCCC[C@H](NCC(=O)O)C(=O)N[C@H](C(=O)N(C)C)C(C)(C)C | > 200 | > 200 |  |  |
| CCCC[C@H](CN(O)C(C)=O)C(=O)N[C@H](C(=O)N(C)C)C(C)(C)C | > 200 | > 200 |  | 60 |
| CCCC[C@H](CNC=O)C(=O)N[C@H](C(=O)N(C)C)C(C)(C)C | > 200 | > 200 |  |  |
| CCCC[C@H](NC(=O)NO)C(=O)N[C@H](C(=O)N(C)C)C(C)(C)C | > 200 | > 200 |  | 40 |
